Data from paper PMC11643494, “Structure–Activity Relationship Studies in a Series of 2-Aryloxy-N-(pyrimidin-5-yl)acetamide Inhibitors of SLACK Potassium Channels” (Molecules, 2024).

Key:
[1] = target: T1, Maxi-K α1/β3 (Homo sapiens, UniProt Q12791); test: Tl+-flux assay in HEK-293 cells, Maxi-K α1/β3; assay type: cell-based; details: HEK293; 10 µM test compound; relative to control paxilline; read-out: Percent Inhibition ± SEM, Maxi-K α1/β3
T1 construct: expressed in transfected cells; host or cells: HEK293
Text: (§1) Having executed our plan to prepare analogs across the identified regions of the chemotype (Figure 2), we identified two analogs for further profiling and evaluation. […] Desiring to add a second compound with some measure of structural differences, we also chose another submicromolar SLACK inhibitor 66 (VU0936154). Whereas 40 contains an ether linker and a halogenated phenyl group in the eastern region, […] contains an N-methyl linker and a phenyl group with a more polar cyano substituent. We first screened these analogs at 10 µM versus our in-house panel of ion channel targets using Tl^+-flux assays in HEK-293 cells expressing the human target of interest. […] Included in this set are Slo family members SLICK and two isoforms of Maxi-K, as well as several different K^+, Na^+, and Ca^2+ channels (Table 6). […] Of note was the excellent selectivity versus the broader panel of targets for both compounds, including versus the hERG channel.
(§2) Stably transfected monoclonal HEK293 cell lines expressing SLICK, Maxi-K α1/β3, Maxi-K α1/β4, CaV3.2, GIRK 1/2, KV2.1, KV7.2, NaV1.7, and TASK-1 were generated as previously described. […]
(§3) The Tl^+ flux assays were conducted as previously described, with modifications optimized for individual cell lines as described below. […] Cell plates were then loaded onto a Panoptic kinetic imaging plate reader (WaveFront Biosciences, Franklin, TN, USA). […]

[2] = target: T2, CaV3.2 (Homo sapiens, UniProt O95180); test: Tl+-flux assay in HEK-293 cells, CaV3.2; assay type: cell-based; details: HEK293; 10 µM test compound; relative to control bepridil; read-out: Percent Inhibition ± SEM, CaV3.2
T2 construct: expressed in transfected cells; host or cells: HEK293
Text: as §1, §2, §3

T2 sequence (O95180 whole entry): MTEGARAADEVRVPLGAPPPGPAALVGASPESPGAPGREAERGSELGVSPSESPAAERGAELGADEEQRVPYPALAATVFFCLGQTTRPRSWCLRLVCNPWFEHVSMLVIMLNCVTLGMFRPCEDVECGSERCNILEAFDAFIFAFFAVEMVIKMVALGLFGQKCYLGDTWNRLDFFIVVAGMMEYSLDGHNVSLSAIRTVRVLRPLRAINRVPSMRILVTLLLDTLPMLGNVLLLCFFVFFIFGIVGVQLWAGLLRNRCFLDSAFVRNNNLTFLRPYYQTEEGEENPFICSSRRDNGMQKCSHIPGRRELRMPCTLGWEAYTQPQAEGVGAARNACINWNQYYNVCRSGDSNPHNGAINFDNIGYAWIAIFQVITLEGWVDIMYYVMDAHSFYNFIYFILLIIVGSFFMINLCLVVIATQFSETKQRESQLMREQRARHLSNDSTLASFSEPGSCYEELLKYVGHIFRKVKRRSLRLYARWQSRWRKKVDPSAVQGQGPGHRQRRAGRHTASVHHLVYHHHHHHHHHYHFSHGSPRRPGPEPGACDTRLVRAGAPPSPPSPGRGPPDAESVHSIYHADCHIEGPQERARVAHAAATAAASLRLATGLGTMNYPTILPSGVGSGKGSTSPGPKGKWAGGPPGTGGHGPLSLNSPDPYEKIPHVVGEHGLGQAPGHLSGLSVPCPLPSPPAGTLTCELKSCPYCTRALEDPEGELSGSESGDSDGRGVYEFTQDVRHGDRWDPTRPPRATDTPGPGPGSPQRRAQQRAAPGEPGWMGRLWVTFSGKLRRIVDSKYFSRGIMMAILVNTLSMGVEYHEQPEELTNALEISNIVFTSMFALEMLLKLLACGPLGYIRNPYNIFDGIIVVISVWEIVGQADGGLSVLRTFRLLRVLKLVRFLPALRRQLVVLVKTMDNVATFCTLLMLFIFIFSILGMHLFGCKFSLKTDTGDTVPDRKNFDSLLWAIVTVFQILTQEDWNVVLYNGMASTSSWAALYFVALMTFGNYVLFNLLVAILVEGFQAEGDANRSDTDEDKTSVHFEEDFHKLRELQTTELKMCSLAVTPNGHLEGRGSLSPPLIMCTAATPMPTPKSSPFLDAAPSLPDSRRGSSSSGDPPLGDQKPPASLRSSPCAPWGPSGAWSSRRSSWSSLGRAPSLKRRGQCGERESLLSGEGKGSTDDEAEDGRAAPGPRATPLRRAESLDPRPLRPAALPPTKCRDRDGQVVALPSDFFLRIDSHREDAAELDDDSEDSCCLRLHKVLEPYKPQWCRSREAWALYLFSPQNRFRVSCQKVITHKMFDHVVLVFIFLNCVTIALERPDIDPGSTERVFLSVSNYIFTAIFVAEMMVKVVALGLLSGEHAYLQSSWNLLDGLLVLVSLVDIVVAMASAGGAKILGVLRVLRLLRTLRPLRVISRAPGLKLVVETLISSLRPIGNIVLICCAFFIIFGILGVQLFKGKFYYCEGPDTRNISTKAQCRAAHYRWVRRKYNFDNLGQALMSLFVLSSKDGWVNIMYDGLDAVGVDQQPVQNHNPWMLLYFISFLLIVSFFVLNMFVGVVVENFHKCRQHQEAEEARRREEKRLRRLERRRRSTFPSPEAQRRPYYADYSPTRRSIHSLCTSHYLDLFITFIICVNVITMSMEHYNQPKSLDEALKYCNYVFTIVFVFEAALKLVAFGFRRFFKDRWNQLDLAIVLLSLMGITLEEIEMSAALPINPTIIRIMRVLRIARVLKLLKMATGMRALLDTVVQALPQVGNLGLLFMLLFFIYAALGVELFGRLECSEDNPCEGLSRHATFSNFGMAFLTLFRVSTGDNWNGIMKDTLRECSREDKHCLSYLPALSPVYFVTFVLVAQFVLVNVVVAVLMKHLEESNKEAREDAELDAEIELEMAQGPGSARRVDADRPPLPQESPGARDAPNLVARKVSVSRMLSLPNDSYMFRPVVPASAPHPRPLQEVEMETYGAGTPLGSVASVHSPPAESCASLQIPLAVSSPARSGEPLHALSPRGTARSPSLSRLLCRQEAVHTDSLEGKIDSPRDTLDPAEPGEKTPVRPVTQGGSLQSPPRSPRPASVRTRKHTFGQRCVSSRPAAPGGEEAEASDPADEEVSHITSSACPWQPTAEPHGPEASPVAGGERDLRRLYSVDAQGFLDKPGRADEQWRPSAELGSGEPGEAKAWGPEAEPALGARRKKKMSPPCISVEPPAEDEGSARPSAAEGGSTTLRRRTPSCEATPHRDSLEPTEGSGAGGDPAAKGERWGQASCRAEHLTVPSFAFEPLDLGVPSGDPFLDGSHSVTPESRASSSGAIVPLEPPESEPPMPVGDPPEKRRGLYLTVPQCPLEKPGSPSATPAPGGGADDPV
T1 sequence (Q12791 whole entry): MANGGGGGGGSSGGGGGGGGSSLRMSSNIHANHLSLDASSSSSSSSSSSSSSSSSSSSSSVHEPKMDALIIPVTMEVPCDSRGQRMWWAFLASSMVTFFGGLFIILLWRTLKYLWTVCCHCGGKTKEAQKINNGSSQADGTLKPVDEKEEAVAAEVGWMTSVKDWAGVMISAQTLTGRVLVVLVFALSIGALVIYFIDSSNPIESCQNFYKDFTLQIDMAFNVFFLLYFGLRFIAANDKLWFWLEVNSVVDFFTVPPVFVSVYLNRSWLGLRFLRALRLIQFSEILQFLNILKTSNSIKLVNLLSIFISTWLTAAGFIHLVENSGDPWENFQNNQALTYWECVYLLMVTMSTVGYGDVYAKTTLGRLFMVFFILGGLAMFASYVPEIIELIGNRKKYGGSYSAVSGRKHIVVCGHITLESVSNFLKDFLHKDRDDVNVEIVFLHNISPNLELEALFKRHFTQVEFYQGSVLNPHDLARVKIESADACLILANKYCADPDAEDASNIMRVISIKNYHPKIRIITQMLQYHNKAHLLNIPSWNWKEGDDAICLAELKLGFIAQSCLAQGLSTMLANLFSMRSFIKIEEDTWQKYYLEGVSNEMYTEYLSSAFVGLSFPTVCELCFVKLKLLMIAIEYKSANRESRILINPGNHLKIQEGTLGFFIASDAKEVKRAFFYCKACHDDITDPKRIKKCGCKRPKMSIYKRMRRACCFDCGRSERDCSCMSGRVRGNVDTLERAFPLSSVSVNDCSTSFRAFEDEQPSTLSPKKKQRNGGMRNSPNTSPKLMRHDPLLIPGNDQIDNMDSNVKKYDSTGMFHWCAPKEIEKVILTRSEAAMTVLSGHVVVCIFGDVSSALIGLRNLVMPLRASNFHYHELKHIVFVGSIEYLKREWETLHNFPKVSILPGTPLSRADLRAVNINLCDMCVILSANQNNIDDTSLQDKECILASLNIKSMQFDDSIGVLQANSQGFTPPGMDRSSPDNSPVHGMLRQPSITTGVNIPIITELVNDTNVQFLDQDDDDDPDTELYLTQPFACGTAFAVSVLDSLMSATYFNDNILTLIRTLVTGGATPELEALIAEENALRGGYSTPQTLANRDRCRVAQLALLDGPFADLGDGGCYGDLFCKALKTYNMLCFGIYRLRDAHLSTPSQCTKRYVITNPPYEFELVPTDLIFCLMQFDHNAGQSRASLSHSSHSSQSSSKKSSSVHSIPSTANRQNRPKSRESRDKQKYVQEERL
T1 sequence (Q9NPA1 whole entry partner): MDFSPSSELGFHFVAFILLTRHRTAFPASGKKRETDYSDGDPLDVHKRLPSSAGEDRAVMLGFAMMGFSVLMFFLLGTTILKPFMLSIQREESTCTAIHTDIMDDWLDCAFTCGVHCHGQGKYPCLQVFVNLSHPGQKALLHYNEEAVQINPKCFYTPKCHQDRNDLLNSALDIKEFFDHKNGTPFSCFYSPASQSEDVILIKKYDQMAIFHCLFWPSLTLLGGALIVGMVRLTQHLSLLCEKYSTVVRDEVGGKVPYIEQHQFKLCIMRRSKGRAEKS

What does the source list for `CC(C)(Oc1ccc(Cl)cc1)C(=O)Nc1cnc(Oc2c(F)cccc2F)nc1` [Analog 40]?
inhibition at 10 µM [1]: 27 ± 11%; inhibition at 10 µM [2]: 10 ± 0.82%

With `CN(c1ccc(C#N)cc1)c1ncc(NC(=O)C(C)(C)Oc2ccc(Cl)cc2)cn1` [Analog 66] as the compound, how does the inhibition at 10 µM [1] read?
Its inhibition at 10 µM is 30 ± 2.6%.

And the inhibition at 10 µM [2]?
Its inhibition at 10 µM is 32 ± 2.4%.
